What was measured:
[1] = test system: spindle assembly checkpoint; experiment: SAC-Formation - Nocodazole-Induced Assay; assay type: cell-based; conditions: Homo sapiens; HeLa cells, nocodazole 0.1 μg/ml, 24 h, phosphorylated histone H3 on serine 10
Outline: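 HeLa cells were given nocodazole at 0.1 μg/ml final together with compounds (0.005–20 μM, 0.5% DMSO) for 24 h at 37° C. Mitotic cells were counted by phospho-histone H3 Ser10 immunostaining, with cell number from HOECHST 33342, by high-content imaging. The loss of mitotic cells was fitted with a four-parameter Hill equation.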

human Bub1 = human Bub1 (Homo sapiens (Human), UniProt O43683); experiment: Bub1 kinase assay (TR-FRET); assay type: biochemical; conditions: 10 μM ATP; read-out: Bub1 avg (IC50 [mol/l])
Chain of human Bub1 (O43683 704-1085): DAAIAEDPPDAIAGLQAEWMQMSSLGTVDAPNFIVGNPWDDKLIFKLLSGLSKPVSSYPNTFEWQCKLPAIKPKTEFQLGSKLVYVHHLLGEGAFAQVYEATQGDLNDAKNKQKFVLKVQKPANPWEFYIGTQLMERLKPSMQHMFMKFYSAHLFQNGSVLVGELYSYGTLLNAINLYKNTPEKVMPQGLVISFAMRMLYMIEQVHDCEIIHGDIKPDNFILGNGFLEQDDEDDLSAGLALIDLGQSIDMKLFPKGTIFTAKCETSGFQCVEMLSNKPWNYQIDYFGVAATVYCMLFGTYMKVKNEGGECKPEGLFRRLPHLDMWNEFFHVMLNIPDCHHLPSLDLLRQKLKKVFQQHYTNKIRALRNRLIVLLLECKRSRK
Outline: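 His6-tagged human Bub1 catalytic domain (aa 704-1085, insect-cell expressed, ~200 ng/ml) preincubated with compound 15 min, then reacted 60 min at 22 °C with 10 μM ATP and 1 μM biotinylated peptide (final) in pH 7.5 Tris buffer. Phosphopeptide detected by TR-FRET 665/620 ratio, normalised to no-inhibitor and no-enzyme controls.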

Question: `CCc1ccccc1NC(=O)c1c(C)nsc1Nc1ccncn1` [Example 2, N-(2-Ethylphenyl)-3-methyl-5-(pyrimidin-4-ylamino)-1,2-thiazole-4-carboxamide] was tested. Which IC50 [1] did it give?
Answer: Its IC50 is 4.2 µM.

Question: And the IC50 (human Bub1)?
Answer: The IC50 was > 20 µM.

Question: Which results are given for `CCc1ccccc1NC(=O)c1c(C)nsc1Nc1ncccc1C(F)(F)F` [Example 3, N-(2-Ethylphenyl)-3-methyl-5-{[3-(trifluoromethyl)pyridin-2-yl]amino}-1,2-thiazole-4-carboxamide]?
Answer: IC50 [1]: 3 µM; IC50 (human Bub1): > 20 µM

Question: Which IC50 [1] does the source give for `CCc1ccccc1NC(=O)c1c(C)nsc1Nc1cc(C#N)ccn1` [Example 4, 5-[(4-Cyanopyridin-2-yl)amino]-N-(2-ethylphenyl)-3-methyl-1,2-thiazole-4-carboxamide] here?
Answer: Its IC50 is 0.73 µM.

Question: And the IC50 (human Bub1)?
Answer: The IC50 was > 20 µM.

Question: `CCc1ccccc1NC(=O)c1c(C)nsc1Nc1nccc(-c2ccccc2)n1` [Example 5, N-(2-Ethylphenyl)-3-methyl-5-[(4-phenylpyrimidin-2-yl)amino]-1,2-thiazole-4-carboxamide] was tested. Which IC50 [1] did it give?
Answer: The IC50 was 1.2 µM.

Question: And the IC50 (human Bub1)?
Answer: The IC50 was > 20 µM.

Question: With `Cc1nsc(Nc2nc3c(C(F)(F)F)ccnc3s2)c1C(=O)Nc1ccc(F)c(F)c1` [Example 58, N-(3,4-Difluorophenyl)-3-methyl-5-{[7-(trifluoromethyl)[1,3]thiazolo[5,4-b]pyridin-2-yl]amino}-1,2-thiazole-4-carboxamide] as the compound, how does the IC50 [1] read?
Answer: Its IC50 is 0.28 µM.

Question: And the IC50 (human Bub1)?
Answer: Its IC50 is > 20 µM.

Question: Which IC50 [1] does the source give for `COC(=O)c1cnc(Nc2snc(C)c2C(=O)Nc2ccc(F)c(F)c2)cn1` [Example 59, Methyl 5-({4-[(3,4-difluorophenyl)carbamoyl]-3-methyl-1,2-thiazol-5-yl}amino)-pyrazine-2-carboxylate] here?
Answer: The IC50 was 0.26 µM.

Question: And the IC50 (human Bub1)?
Answer: The IC50 was > 20 µM.

Question: For `Cc1nsc(Nc2cnc3cc(C(F)(F)F)ccc3n2)c1C(=O)Nc1ccc(F)c(F)c1` [Example 60, N-(3,4-Difluorophenyl)-3-methyl-5-{[6-(trifluoromethyl)quinoxalin-2-yl]amino}-1,2-thiazole-4-carboxamide], which IC50 [1] is on record?
Answer: The IC50 was 0.04 µM.

Question: And the IC50 (human Bub1)?
Answer: Its IC50 is > 20 µM.

Question: For `Cc1nsc(Nc2cnc3cc(C(F)(F)F)ccc3n2)c1C(=O)Nc1ccc(Cl)c(Cl)c1` [Example 61, N-(3,4-Dichlorophenyl)-3-methyl-5-{[6-(trifluoromethyl)quinoxalin-2-yl]amino}-1,2-thiazole-4-carboxamide], which IC50 [1] is on record?
Answer: The IC50 was 0.31 µM.

Question: What about the IC50 (human Bub1) of the same compound?
Answer: Its IC50 is > 20 µM.

Question: `Cc1nsc(Nc2ccc(C#N)cn2)c1C(=O)Nc1ccc(Cl)c(Cl)c1` [Example 62, 5-[(5-Cyanopyridin-2-yl)amino]-N-(3,4-dichlorophenyl)-3-methyl-1,2-thiazole-4-carboxamide] was tested. Which IC50 [1] did it give?
Answer: Its IC50 is 0.0082 µM.

Question: What about the IC50 (human Bub1) of the same compound?
Answer: The IC50 was > 20 µM.

Question: How did the IC50 [1] turn out when `Cc1nsc(Nc2cncc(-c3ncco3)n2)c1C(=O)Nc1ccc(Cl)c(F)c1` [Example 63, N-(4-Chloro-3-fluorophenyl)-3-methyl-5-{[6-(1,3-oxazol-2-yl)pyrazin-2-yl]amino}-1,2-thiazole-4-carboxamide] was run?
Answer: Its IC50 is 0.18 µM.

Question: What about the IC50 (human Bub1) of the same compound?
Answer: The IC50 was > 20 µM.

Question: Which IC50 [1] does the source give for `Cc1nsc(Nc2cncc(-n3cccn3)n2)c1C(=O)Nc1ccc(F)c(F)c1` [Example 64, N-(3,4-Difluorophenyl)-3-methyl-5-{[6-(1H-pyrazol-1-yl)pyrazin-2-yl]amino}-1,2-thiazole-4-carboxamide] here?
Answer: Its IC50 is 0.097 µM.

Question: Which IC50 [1] does the source give for `Cc1nsc(Nc2cnccn2)c1C(=O)Nc1ccc(F)c(F)c1` [Example 65, N-(3,4-Difluorophenyl)-3-methyl-5-(pyrazin-2-ylamino)-1,2-thiazole-4-carboxamide] here?
Answer: Its IC50 is 0.21 µM.

Question: What about the IC50 (human Bub1) of the same compound?
Answer: Its IC50 is > 20 µM.

Question: `COC(=O)c1cncc(Nc2snc(C)c2C(=O)Nc2ccc(F)c(F)c2)n1` [Example 66, Methyl 6-({4-[(3,4-difluorophenyl)carbamoyl]-3-methyl-1,2-thiazol-5-yl}amino)-pyrazine-2-carboxylate] was tested. Which IC50 [1] did it give?
Answer: Its IC50 is 0.037 µM.

Question: And the IC50 (human Bub1)?
Answer: Its IC50 is > 20 µM.

Question: With `Cc1nsc(Nc2cncc(-n3cccn3)n2)c1C(=O)Nc1ccc(Cl)c(F)c1` [Example 67, N-(4-Chloro-3-fluorophenyl)-3-methyl-5-{[6-(1H-pyrazol-1-yl)pyrazin-2-yl]amino}-1,2-thiazole-4-carboxamide] as the compound, how does the IC50 [1] read?
Answer: Its IC50 is 0.012 µM.

Question: What about the IC50 (human Bub1) of the same compound?
Answer: Its IC50 is > 20 µM.

Question: For `Cc1nsc(Nc2cnc3cc(C(F)(F)F)ccc3n2)c1C(=O)Nc1ccc(Cl)c(F)c1` [Example 68, N-(4-Chloro-3-fluorophenyl)-3-methyl-5-{[6-(trifluoromethyl)quinoxalin-2-yl]amino}-1,2-thiazole-4-carboxamide], which IC50 [1] is on record?
Answer: Its IC50 is 0.049 µM.

Question: What about the IC50 (human Bub1) of the same compound?
Answer: The IC50 was > 20 µM.

Question: For `Cc1cncc(Nc2snc(C)c2C(=O)Nc2ccc(F)c(F)c2)n1` [Example 69], which IC50 [1] is on record?
Answer: The IC50 was 0.048 µM.

Question: What about the IC50 (human Bub1) of the same compound?
Answer: Its IC50 is > 20 µM.

Question: With `CNC(=O)c1cncc(Nc2snc(C)c2C(=O)Nc2ccc(F)c(F)c2)n1` [Example 70, 6-({4-[(3,4-Difluorophenyl)carbamoyl]-3-methyl-1,2-thiazol-5-yl}amino)-N-methylpyrazine-2-carboxamide] as the compound, how does the IC50 [1] read?
Answer: The IC50 was 0.099 µM.

Question: And the IC50 (human Bub1)?
Answer: Its IC50 is 1.7 µM.

Question: Which IC50 [1] does the source give for `Cc1nsc(Nc2cncc(Cl)n2)c1C(=O)Nc1ccc(F)c(F)c1` [Example 71, 5-[(6-Chloropyrazin-2-yl)amino]-N-(3,4-difluorophenyl)-3-methyl-1,2-thiazole-4-carboxamide] here?
Answer: The IC50 was 0.094 µM.

Question: What about the IC50 (human Bub1) of the same compound?
Answer: Its IC50 is > 20 µM.

Question: What does the source list for `COc1cncc(Nc2snc(C)c2C(=O)Nc2ccc(F)c(F)c2)n1` [Example 72, N-(3,4-Difluorophenyl)-5-[(6-methoxypyrazin-2-yl)amino]-3-methyl-1,2-thiazole-4-carboxamide]?
Answer: IC50 [1]: 0.35 µM; IC50 (human Bub1): > 20 µM

Question: With `CCNC(=O)c1cncc(Nc2snc(C)c2C(=O)Nc2ccc(F)c(F)c2)n1` [Example 73, 6-({4-[(3,4-Difluorophenyl)carbamoyl]-3-methyl-1,2-thiazol-5-yl}amino)-N-ethylpyrazine-2-carboxamide] as the compound, how does the IC50 [1] read?
Answer: The IC50 was 0.23 µM.

Question: And the IC50 (human Bub1)?
Answer: The IC50 was 6.2 µM.

Question: How did the IC50 [1] turn out when `Cc1nsc(Nc2cnc(Cl)cn2)c1C(=O)Nc1ccc(F)c(F)c1` [Example 74, 5-[(5-Chloropyrazin-2-yl)amino]-N-(3,4-difluorophenyl)-3-methyl-1,2-thiazole-4-carboxamide] was run?
Answer: Its IC50 is 0.029 µM.

Question: What about the IC50 (human Bub1) of the same compound?
Answer: The IC50 was > 20 µM.

Question: What does the source list for `CNC(=O)c1cnc(Nc2snc(C)c2C(=O)Nc2ccc(F)c(F)c2)cn1` [Example 75, 5-({4-[(3,4-Difluorophenyl)carbamoyl]-3-methyl-1,2-thiazol-5-yl}amino)-N-methylpyrazine-2-carboxamide]?
Answer: IC50 [1]: 0.081 µM; IC50 (human Bub1): > 20 µM

Question: Which results are given for `CCc1cncc(Nc2snc(C)c2C(=O)Nc2ccc(F)c(F)c2)n1` [Example 76, N-(3,4-Difluorophenyl)-5-[(6-ethylpyrazin-2-yl)amino]-3-methyl-1,2-thiazole-4-carboxamide]?
Answer: IC50 [1]: 0.052 µM; IC50 (human Bub1): > 20 µM

Question: With `Cc1nsc(Nc2cnc(Br)cn2)c1C(=O)Nc1ccc(F)c(F)c1` [Example 77, 5-[(5-Bromopyrazin-2-yl)amino]-N-(3,4-difluorophenyl)-3-methyl-1,2-thiazole-4-carboxamide] as the compound, how does the IC50 [1] read?
Answer: The IC50 was 0.018 µM.

Question: And the IC50 (human Bub1)?
Answer: The IC50 was > 20 µM.

Question: Which IC50 [1] does the source give for `CCNc1cncc(Nc2snc(C)c2C(=O)Nc2ccc(F)c(F)c2)n1` [Example 78, N-(3,4-Difluorophenyl)-5-{[6-(ethylamino)pyrazin-2-yl]amino}-3-methyl-1,2-thiazole-4-carboxamide] here?
Answer: The IC50 was 0.39 µM.

Question: What about the IC50 (human Bub1) of the same compound?
Answer: The IC50 was > 20 µM.

Question: Which results are given for `CCc1cnc(Nc2snc(C)c2C(=O)Nc2ccc(F)c(F)c2)cn1` [Example 79, N-(3,4-Difluorophenyl)-5-[(5-ethylpyrazin-2-yl)amino]-3-methyl-1,2-thiazole-4-carboxamide]?
Answer: IC50 [1]: 0.14 µM; IC50 (human Bub1): > 20 µM

— patent US9682995B2, “Amino-substituted isothiazoles” (BAYER PHARMA AKTIENGESELLSCHAFT, priority 2013, dated 2017)
